Experimental data: ChEMBL document CHEMBL1201862, “PubChem BioAssay data set” (2004)
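How tested: cells in 96-well plates exposed to compound for 48 hours at five concentrations. GI50 = concentration required for 50% inhibition of growth.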 Activity calls are given as the source filed them. Rule as the data show it: active = GI50 up to about 1.1 µM and inactive = higher.

Tests used:
Experiment in all cases: DTP human tumour cell line panel, 48 h
[1] = tested on: A498
[2] = tested on: SF-539
[3] = tested on: BT-549
[4] = tested on: LOX IMVI
[5] = tested on: SNB-75
[6] = tested on: SK-MEL-2
[7] = tested on: NCI-H23
[8] = tested on: OVCAR-8
[9] = tested on: HT-29
[10] = tested on: MDA-MB-231
[11] = tested on: SF-268
[12] = tested on: RPMI-8226
[13] = tested on: SK-MEL-5
[14] = tested on: COLO 205
[15] = tested on: SK-MEL-28
[16] = tested on: KM12
[17] = tested on: IGROV-1
[18] = tested on: TK-10
[19] = tested on: SR

Measured: GI50

C=CCOc1cc(NC(=S)c2ccoc2C)ccc1OC
inactive: [1] > 100 µM | [2] > 100 µM | [3] > 100 µM | [4] > 100 µM | [5] 24.1 µM | [6] > 100 µM | [7] > 100 µM | [8] > 100 µM | [9] > 100 µM | [10] > 100 µM | [11] > 100 µM | [12] > 100 µM | [13] > 100 µM | [14] > 100 µM | [15] > 100 µM | [16] > 100 µM | [17] > 100 µM

C[C@H](CC[C@@H](O)C(C)(C)O)[C@H]1CC[C@@]2(C)[C@@H]3CC=C4[C@@H](CC[C@H](OC5OC(CO)C(O)C(O)C5O)C4(C)C)[C@]3(C)C(=O)C[C@]12C (some centres undefined)
inactive: [18] 60.8 µM | [1] > 100 µM | [2] > 100 µM | [3] 56.5 µM | [4] 39 µM | [5] 34.3 µM | [6] 26.3 µM | [7] > 100 µM | [8] > 100 µM | [9] 26.1 µM | [10] > 100 µM | [11] 57.7 µM | [13] 39.5 µM | [14] 48.9 µM | [15] 27.7 µM | [16] > 100 µM | [17] 19.8 µM

Cc1ccc(OCCn2cc(Nc3ccccc3)c(=O)n(CCOc3ccc(C)cc3)c2=O)cc1
inactive: [18] 48.4 µM | [1] > 100 µM | [2] > 100 µM | [3] > 100 µM | [4] > 100 µM | [5] > 100 µM | [6] > 100 µM | [7] > 100 µM | [8] 40.6 µM | [9] 51.1 µM | [10] 69.5 µM | [11] 35.6 µM | [12] > 100 µM | [13] > 100 µM | [14] > 100 µM | [15] > 100 µM | [16] > 100 µM | [17] 50.8 µM

COc1ccc(N2C(=O)CC(c3c[nH]c4ncccc34)C2=O)cc1 (centres undefined)
inactive: [18] 14.2 µM | [1] 58.5 µM | [2] > 47.2 µM | [3] 17.5 µM | [4] > 100 µM | [5] > 100 µM | [6] 36.1 µM | [7] 24.2 µM | [8] 19.7 µM | [9] 19.8 µM | [10] 20 µM | [11] > 100 µM | [12] > 100 µM | [13] > 100 µM | [14] 18.8 µM | [15] 29 µM | [16] > 100 µM | [17] 21.3 µM

Clc1ccc(Cc2nc3ccccc3o2)cc1
inactive: [18] > 100 µM | [2] > 100 µM | [3] 35.8 µM | [4] > 100 µM | [19] 50.5 µM | [5] 20 µM | [6] > 100 µM | [7] 56 µM | [8] > 100 µM | [9] 40.2 µM | [10] > 100 µM | [11] > 100 µM | [12] 27.6 µM | [13] 31.3 µM | [14] 74.6 µM | [15] > 100 µM | [16] 69.8 µM | [17] > 100 µM

O=C1CC=C2C3CC4N(CCC45c4ccccc4N1C25)C/C3=C\CO (centres undefined)
inactive: [18] > 100 µM | [1] > 100 µM | [2] > 100 µM | [3] > 100 µM | [4] > 100 µM | [5] > 100 µM | [6] > 100 µM | [7] > 100 µM | [8] > 100 µM | [9] > 100 µM | [10] > 100 µM | [11] > 100 µM | [12] > 100 µM | [13] > 100 µM | [14] > 100 µM | [15] > 100 µM | [16] > 100 µM | [17] > 100 µM

C/C=C\C(CC(=O)NCCC1CN(S(=O)(=O)c2ccc(C)cc2)c2ccccc21)CC(=O)OC (centres undefined)
inactive: [18] > 100 µM | [1] > 100 µM | [3] > 100 µM | [5] > 100 µM | [6] > 100 µM | [7] > 100 µM | [8] > 100 µM | [9] > 100 µM | [10] > 100 µM | [11] > 100 µM | [12] > 100 µM | [13] > 100 µM | [14] > 100 µM | [15] > 100 µM | [16] > 100 µM | [17] > 100 µM

COc1cccc(CSCC(=O)O)c1
inactive: [18] > 100 µM | [1] > 100 µM | [2] > 100 µM | [3] > 100 µM | [4] > 100 µM | [5] > 100 µM | [6] > 100 µM | [7] > 100 µM | [8] > 100 µM | [9] > 100 µM | [10] > 100 µM | [11] > 100 µM | [12] > 100 µM | [13] > 100 µM | [14] > 100 µM | [15] > 100 µM | [16] > 100 µM | [17] > 100 µM

COc1cc2c(cc1O)C1Cc3ccc(OC)c(O)c3C[N+]1(C)CC2 (centres undefined)
inactive: [18] > 100 µM | [1] > 100 µM | [2] > 100 µM | [3] > 100 µM | [4] > 100 µM | [5] > 100 µM | [6] > 100 µM | [7] > 100 µM | [8] > 100 µM | [9] > 100 µM | [10] > 100 µM | [11] > 100 µM | [12] > 100 µM | [13] > 100 µM | [14] > 100 µM | [15] > 100 µM | [16] > 100 µM | [17] > 100 µM

CCCCCC(O)[C@H]1C(=O)C[C@@H](O[Si](C)(C)C(C)(C)C)[C@@H]1/C=C/CCOCc1ccccc1 (some centres undefined)
inactive: [18] 15.1 µM | [1] 17.8 µM | [2] 4.23 µM | [3] 8.07 µM | [4] 10.9 µM | [5] 17.8 µM | [6] 15.5 µM | [7] 16.2 µM | [8] 13.8 µM | [9] 9.59 µM | [10] 29.2 µM | [11] 16.3 µM | [12] 17 µM | [13] 16.6 µM | [14] 16 µM | [15] 15.5 µM | [16] 5.41 µM | [17] 12.8 µM

Cc1ccc(Nc2[nH]c(=O)[nH]c(=O)c2C)cc1Cl
inactive: [18] 91.8 µM | [1] > 100 µM | [2] > 100 µM | [3] > 100 µM | [4] > 100 µM | [5] 29.8 µM | [6] > 100 µM | [7] > 100 µM | [8] > 100 µM | [9] > 100 µM | [10] > 100 µM | [11] 87.7 µM | [12] 58.5 µM | [13] 92 µM | [14] > 100 µM | [15] > 100 µM | [16] > 100 µM | [17] 78.5 µM
